Source: PubChem BioAssay AID1845216 (Molecular Pharmacology Branch, DTP, NCI, 2023)

Test system: SW 982 tumor spheroid viability
Test: Anticancer human tumor SW 982 cell line growth inhibition;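 further: spheroids exposed to compound for 7 days before readout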
Settings: spheroids with HUVEC and MSC; for IC50: curve of first compound; for viability, T/C: stronger effect = lower value
How it was run: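 Complex tumor spheroids combined malignant cells with endothelial cells and mesenchymal stem cells. DNA-damaging drugs and DNA repair inhibitors were tested alone and in combination, at half-log dilutions down from clinical Cmax (top 10 microM if Cmax unknown), 0.25% DMSO final.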

[1] = second compound 30 pM, first compound 0.0316 µM
[2] = second compound 30 pM, first compound 0.1 µM
[3] = second compound 30 pM, first compound 0.316 µM
[4] = second compound 30 pM, first compound 1 µM
[5] = second compound 30 pM, first compound 3.16 µM
[6] = second compound 30 pM, first compound 10 µM
[7] = second compound 94.9 pM, first compound 0.0316 µM
[8] = second compound 94.9 pM, first compound 0.1 µM
[9] = second compound 94.9 pM, first compound 0.316 µM
[10] = second compound 94.9 pM, first compound 1 µM
[11] = second compound 94.9 pM, first compound 3.16 µM
[12] = second compound 94.9 pM, first compound 10 µM
[13] = second compound 0.0003 µM, first compound 0.0316 µM
[14] = second compound 0.0003 µM, first compound 0.1 µM
[15] = second compound 0.0003 µM, first compound 0.316 µM
[16] = second compound 0.0003 µM, first compound 1 µM
[17] = second compound 0.0003 µM, first compound 3.16 µM
[18] = second compound 0.0003 µM, first compound 10 µM
[19] = second compound 0.000949 µM, first compound 0.0316 µM
[20] = second compound 0.000949 µM, first compound 0.1 µM
[21] = second compound 0.000949 µM, first compound 0.316 µM
[22] = second compound 0.000949 µM, first compound 1 µM
[23] = second compound 0.000949 µM, first compound 3.16 µM
[24] = second compound 0.000949 µM, first compound 10 µM
[25] = second compound 0.003 µM, first compound 0.0316 µM
[26] = second compound 0.003 µM, first compound 0.1 µM
[27] = second compound 0.003 µM, first compound 0.316 µM
[28] = second compound 0.003 µM, first compound 1 µM
[29] = second compound 0.003 µM, first compound 3.16 µM
[30] = second compound 0.003 µM, first compound 10 µM

Row | Compound | IC50 (second compound 30 pM) [nM] | IC50 (second compound 94.9 pM) [nM] | IC50 (second compound 0.0003 µM) [nM] | IC50 (second compound 0.000949 µM) [nM] | IC50 (second compound 0.003 µM) [nM] | viability, T/C [1] [%] | viability, T/C [2] [%] | viability, T/C [3] [%] | viability, T/C [4] [%] | viability, T/C [5] [%] | viability, T/C [6] [%] | viability, T/C [7] [%] | viability, T/C [8] [%] | viability, T/C [9] [%] | viability, T/C [10] [%] | viability, T/C [11] [%] | viability, T/C [12] [%] | viability, T/C [13] [%] | viability, T/C [14] [%] | viability, T/C [15] [%] | further results
1 | CC(C)n1c(=O)n(C)c2cnc3cc(F)c(-c4ccc(OCCCN5CCCCC5)nc4)cc3c21 + COc1cc2c(cc1O)CCNC21CSC2c3c(OC(C)=O)c(C)c4c(c3C(COC1=O)N1C(O)C3Cc5cc(C)c(OC)c(O)c5C(C21)N3C)OCO4 | 2850 | 5660 | 2450 | < 31.6 | < 31.6 | 83.8 | 87.3 | 83.9 | 76.5 | 47.3 | 42.7 | 80.6 | 80.5 | 79.1 | 75.1 | 59.8 | 40.4 | 69.2 | 65.5 | 72.4 | viability, T/C [16]: 64.5%; viability, T/C [17]: 45.9%; viability, T/C [18]: 37%; viability, T/C [19]: 32.3%; viability, T/C [20]: 30.3%; viability, T/C [21]: 30.6%; viability, T/C [22]: 43.6%; viability, T/C [23]: 33.8%; viability, T/C [24]: 21.6%; viability, T/C [25]: 0.57%; viability, T/C [26]: 0.53%; viability, T/C [27]: 0.47%; viability, T/C [28]: 0.5%; viability, T/C [29]: 0.57%; viability, T/C [30]: 0.64%
2 | CC1COCCN1c1cc(-c2ccnn2C)c2ccnc(-c3ccn[nH]3)c2n1 (stereo not given) + COc1cc2c(cc1O)CCNC21CSC2c3c(OC(C)=O)c(C)c4c(c3C(COC1=O)N1C(O)C3Cc5cc(C)c(OC)c(O)c5C(C21)N3C)OCO4 | < 31.6 | < 31.6 | < 31.6 | < 31.6 | < 31.6 | 30.3 | 21.2 | 16.3 | 14.8 | 16.5 | 19.5 | 28 | 19.8 | 14.6 | 12.7 | 16.6 | 18.9 | 18.7 | 16.3 | 12.6 | viability, T/C [16]: 10.9%; viability, T/C [17]: 14.7%; viability, T/C [18]: 14.6%; viability, T/C [19]: 13.8%; viability, T/C [20]: 10.5%; viability, T/C [21]: 6.7%; viability, T/C [22]: 4.79%; viability, T/C [23]: 3.55%; viability, T/C [24]: 1.4%; viability, T/C [25]: 1.23%; viability, T/C [26]: 1.25%; viability, T/C [27]: 0.44%; viability, T/C [28]: 0.7%; viability, T/C [29]: 0.39%; viability, T/C [30]: 0.98%
3 | COc1cc(C)[nH]c(=O)c1CN1CCc2c(Cl)cc(C(OC)C3COC3)c(Cl)c2C1=O (stereo not given) + COc1cc2c(cc1O)CCNC21CSC2c3c(OC(C)=O)c(C)c4c(c3C(COC1=O)N1C(O)C3Cc5cc(C)c(OC)c(O)c5C(C21)N3C)OCO4 | > 10000 | > 10000 | > 10000 | < 31.6 | < 31.6 | 98.5 | 107 | 90.2 | 97.7 | 102 | 107 | 90.5 | 95.6 | 95.7 | 103 | 99.8 | 91.7 | 86.9 | 82.9 | 89.1 | viability, T/C [16]: 91.3%; viability, T/C [17]: 84.7%; viability, T/C [18]: 85.3%; viability, T/C [19]: 38.3%; viability, T/C [20]: 48.7%; viability, T/C [21]: 38%; viability, T/C [22]: 45.6%; viability, T/C [23]: 47.3%; viability, T/C [24]: 28.3%; viability, T/C [25]: 0.42%; viability, T/C [26]: 0.99%; viability, T/C [27]: 0.77%; viability, T/C [28]: 0.49%; viability, T/C [29]: 0.64%; viability, T/C [30]: 1.1%
4 | COc1ccc([C@@H](O)c2cc(-c3ncnc4cc(N5CCOCC5)ccc34)c(F)cc2Cl)nn1 + COc1cc2c(cc1O)CCNC21CSC2c3c(OC(C)=O)c(C)c4c(c3C(COC1=O)N1C(O)C3Cc5cc(C)c(OC)c(O)c5C(C21)N3C)OCO4 | 7190 | 4600 | 1070 | < 31.6 | < 31.6 | 102 | 102 | 96.4 | 88.8 | 79.6 | 38.8 | 96.3 | 97.3 | 93.4 | 70.8 | 65.9 | 26.9 | 84.1 | 83.1 | 84 | viability, T/C [16]: 48%; viability, T/C [17]: 23.6%; viability, T/C [18]: 6.67%; viability, T/C [19]: 36.2%; viability, T/C [20]: 32.6%; viability, T/C [21]: 19.4%; viability, T/C [22]: 4.23%; viability, T/C [23]: 0.86%; viability, T/C [24]: 0.73%; viability, T/C [25]: 0.88%; viability, T/C [26]: 0.57%; viability, T/C [27]: 0.41%; viability, T/C [28]: 1.06%; viability, T/C [29]: 1.12%; viability, T/C [30]: 1.01%
5 | Cc1cc(C)c(CNC(=O)c2cc(-c3ccc(CN4CCOCC4)cc3)cc3c2cnn3C2CCCC2)c(=O)[nH]1 + COc1cc2c(cc1O)CCNC21CSC2c3c(OC(C)=O)c(C)c4c(c3C(COC1=O)N1C(O)C3Cc5cc(C)c(OC)c(O)c5C(C21)N3C)OCO4 | > 10000 | > 10000 | 10000 | < 31.6 | < 31.6 | 97.9 | 99.7 | 104 | 96.7 | 92 | 66.7 | 95.4 | 106 | 102 | 103 | 88.4 | 57.9 | 74.7 | 76 | 84 | viability, T/C [16]: 80.7%; viability, T/C [17]: 71.5%; viability, T/C [18]: 49.8%; viability, T/C [19]: 35.7%; viability, T/C [20]: 39.9%; viability, T/C [21]: 37.5%; viability, T/C [22]: 36.1%; viability, T/C [23]: 27.6%; viability, T/C [24]: 17.8%; viability, T/C [25]: 0.71%; viability, T/C [26]: 0.36%; viability, T/C [27]: 0.51%; viability, T/C [28]: 0.31%; viability, T/C [29]: 0.29%; viability, T/C [30]: 0.83%
6 | [2H]c1nc(C)nc([2H])c1-c1cc(NC[C@@H](C)c2cccc3c(C(=O)NC)ccnc23)ncn1 + COc1cc2c(cc1O)CCNC21CSC2c3c(OC(C)=O)c(C)c4c(c3C(COC1=O)N1C(O)C3Cc5cc(C)c(OC)c(O)c5C(C21)N3C)OCO4 | > 10000 | > 10000 | > 10000 | < 31.6 | < 31.6 | 91.1 | 100 | 98 | 93.3 | 90.3 | 101 | 95.7 | 90.7 | 98.1 | 93.8 | 89.4 | 91.2 | 87.2 | 83.2 | 79.4 | viability, T/C [16]: 70.3%; viability, T/C [17]: 74.9%; viability, T/C [18]: 75.4%; viability, T/C [19]: 37.3%; viability, T/C [20]: 26.5%; viability, T/C [21]: 44.4%; viability, T/C [22]: 44.1%; viability, T/C [23]: 42.6%; viability, T/C [24]: 21.9%; viability, T/C [25]: 0.62%; viability, T/C [26]: 1.1%; viability, T/C [27]: 1.05%; viability, T/C [28]: 0.69%; viability, T/C [29]: 0.48%; viability, T/C [30]: 0.77%
